The subject of the data set is C57BL/6J and C3H/HeJ primary bone marrow-derived macrophages.

Turning to brefeldin A [BFA], the “Effect of BFA alone on viability” value was “no effect” and the “Susceptibility of resistant macrophages to intoxication with LF in the presence of BFA” value is “completely susceptible”.

These data come from patent US20040038222A1 (priority 2001, published 2004).
